Columns and labels:
[1] = biological target: T1, EGFR (Homo sapiens, UniProt P00533); test: KINOMEscan; format: binding; details: 1000 nM
T1 construct: purchased Invitrogen (Carlsbad, CA, USA)

[2] = test system: RSK4(Kin.Dom.2-C-terminal); test: KINOMEscan; format: binding; details: 1000 nM
[3] = test system: HUNK; test: KINOMEscan; format: binding; details: 1000 nM
[4] = test system: MYO3A; test: KINOMEscan; format: binding; details: 1000 nM
[5] = test system: MRCKA; test: KINOMEscan; format: binding; details: 1000 nM
[6] = test system: TBK1; test: KINOMEscan; format: binding; details: 1000 nM
[7] = biological target: T2, BTK (Homo sapiens, UniProt Q06187); test: ADP-Glo biochemical kinase assay; details: purified BTK protein, read-out: IC50 against BTK
T2 construct: purchased Invitrogen (Carlsbad, CA, USA)
T2 sequence (Q06187 whole entry): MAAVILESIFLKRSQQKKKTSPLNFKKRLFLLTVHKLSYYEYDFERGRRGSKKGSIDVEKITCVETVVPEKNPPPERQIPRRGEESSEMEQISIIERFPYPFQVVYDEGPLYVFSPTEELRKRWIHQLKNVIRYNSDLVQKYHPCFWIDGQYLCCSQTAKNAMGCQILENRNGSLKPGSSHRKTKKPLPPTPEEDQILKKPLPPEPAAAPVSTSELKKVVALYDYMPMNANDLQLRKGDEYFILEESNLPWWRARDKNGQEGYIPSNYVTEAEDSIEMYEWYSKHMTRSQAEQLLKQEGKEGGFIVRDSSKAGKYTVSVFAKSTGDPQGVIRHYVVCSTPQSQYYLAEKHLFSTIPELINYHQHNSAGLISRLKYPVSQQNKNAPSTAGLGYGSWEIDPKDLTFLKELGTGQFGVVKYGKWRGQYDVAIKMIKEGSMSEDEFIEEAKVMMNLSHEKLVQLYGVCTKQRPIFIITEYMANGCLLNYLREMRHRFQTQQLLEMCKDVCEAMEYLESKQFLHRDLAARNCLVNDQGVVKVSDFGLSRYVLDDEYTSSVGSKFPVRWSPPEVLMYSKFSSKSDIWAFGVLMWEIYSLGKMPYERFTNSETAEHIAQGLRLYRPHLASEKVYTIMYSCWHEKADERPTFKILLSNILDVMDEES
Experimental: ADP-Glo^TM assay kits from Promega Corporation were used according to instructions. CHMFL-BTK-85 was generally prepared with 1:3 serial dilutions for 4 concentrations (300 nM, 100 nM, 30 nM, and 10 nM). 8 concentrations were used (1 μM to 1 nM) for ATP competition experiments. 2.5 µL BTK (10 ng/µL) was incubated with CHMFL-BTK-85 and CHMFL-BTK-85R for 60 min at room temperature in reaction buffer followed by addition of 2.5 µL ATP/substrate mixture. The assay was conducted for 1 h at 37 °C. After the plate cooled for 5 min at room temperature, 5 μL of ADP-Glo reagent was added into each well to stop the reaction and consume the remaining […] within 40 min. At the end, 10 µL kinase detection reagent was added and incubated for 30 min at room temperature. The luminescence signal was read with an envision Perkin Elmer plate reader (Envision, PE, USA).
The biochemical tests of BMX, BLK, JAK3, TXK, HER2, HER4, ITK, EGFR, and BTK were provided by Invitrogen (Carlsbad, CA, USA).

[8] = test system: CLK2; test: KINOMEscan; format: binding; details: 1000 nM
[9] = test system: RSK2(Kin.Dom.1-N-terminal); test: KINOMEscan; format: binding; details: 1000 nM
[10] = test system: IKK-alpha; test: KINOMEscan; format: binding; details: 1000 nM
[11] = test system: EGFR(L858R); test: KINOMEscan; format: binding; details: 1000 nM
[12] = test system: KIT(V559D,V654A); test: KINOMEscan; format: binding; details: 1000 nM
[13] = test system: PRP4; test: KINOMEscan; format: binding; details: 1000 nM
[14] = test system: FER; test: KINOMEscan; format: binding; details: 1000 nM
[15] = test system: TYK2(JH2domain-pseudokinase); test: KINOMEscan; format: binding; details: 1000 nM
[16] = test system: CDKL3; test: KINOMEscan; format: binding; details: 1000 nM
[17] = test system: MET; test: KINOMEscan; format: binding; details: 1000 nM
[18] = test system: FGFR1; test: KINOMEscan; format: binding; details: 1000 nM
[19] = test system: MUSK; test: KINOMEscan; format: binding; details: 1000 nM
[20] = test system: TRKC; test: KINOMEscan; format: binding; details: 1000 nM
[21] = test system: CAMK2G; test: KINOMEscan; format: binding; details: 1000 nM
[22] = test system: ALK; test: KINOMEscan; format: binding; details: 1000 nM
[23] = test system: PIK3CD; test: KINOMEscan; format: binding; details: 1000 nM
[24] = test system: FLT3(D835H); test: KINOMEscan; format: binding; details: 1000 nM
[25] = test system: FYN; test: KINOMEscan; format: binding; details: 1000 nM
[26] = test system: VRK2; test: KINOMEscan; format: binding; details: 1000 nM
[27] = test system: FLT3; test: KINOMEscan; format: binding; details: 1000 nM
[28] = test system: ICK; test: KINOMEscan; format: binding; details: 1000 nM
[29] = test system: LRRK2; test: KINOMEscan; format: binding; details: 1000 nM
[30] = test system: MAP3K1; test: KINOMEscan; format: binding; details: 1000 nM
[31] = test system: TTK; test: KINOMEscan; format: binding; details: 1000 nM
[32] = test system: MAPKAPK5; test: KINOMEscan; format: binding; details: 1000 nM
[33] = test system: TAK1; test: KINOMEscan; format: binding; details: 1000 nM
[34] = test system: FLT3(K663Q); test: KINOMEscan; format: binding; details: 1000 nM
[35] = test system: PAK1; test: KINOMEscan; format: binding; details: 1000 nM
[36] = test system: MINK; test: KINOMEscan; format: binding; details: 1000 nM
[37] = test system: SNARK; test: KINOMEscan; format: binding; details: 1000 nM
[38] = test system: EPHA2; test: KINOMEscan; format: binding; details: 1000 nM
[39] = test system: CHEK2; test: KINOMEscan; format: binding; details: 1000 nM
[40] = test system: DAPK3; test: KINOMEscan; format: binding; details: 1000 nM
[41] = test system: IRAK4; test: KINOMEscan; format: binding; details: 1000 nM
[42] = test system: SIK2; test: KINOMEscan; format: binding; details: 1000 nM
[43] = test system: FRK; test: KINOMEscan; format: binding; details: 1000 nM
[44] = test system: RIOK2; test: KINOMEscan; format: binding; details: 1000 nM
[45] = test system: TLK1; test: KINOMEscan; format: binding; details: 1000 nM
[46] = test system: PKMYT1; test: KINOMEscan; format: binding; details: 1000 nM
[47] = test system: DAPK1; test: KINOMEscan; format: binding; details: 1000 nM
[48] = test system: RPS6KA5(Kin.Dom.2-C-terminal); test: KINOMEscan; format: binding; details: 1000 nM
[49] = test system: MAP3K3; test: KINOMEscan; format: binding; details: 1000 nM
[50] = test system: WNK4; test: KINOMEscan; format: binding; details: 1000 nM

T1 sequence (P00533 25-1210): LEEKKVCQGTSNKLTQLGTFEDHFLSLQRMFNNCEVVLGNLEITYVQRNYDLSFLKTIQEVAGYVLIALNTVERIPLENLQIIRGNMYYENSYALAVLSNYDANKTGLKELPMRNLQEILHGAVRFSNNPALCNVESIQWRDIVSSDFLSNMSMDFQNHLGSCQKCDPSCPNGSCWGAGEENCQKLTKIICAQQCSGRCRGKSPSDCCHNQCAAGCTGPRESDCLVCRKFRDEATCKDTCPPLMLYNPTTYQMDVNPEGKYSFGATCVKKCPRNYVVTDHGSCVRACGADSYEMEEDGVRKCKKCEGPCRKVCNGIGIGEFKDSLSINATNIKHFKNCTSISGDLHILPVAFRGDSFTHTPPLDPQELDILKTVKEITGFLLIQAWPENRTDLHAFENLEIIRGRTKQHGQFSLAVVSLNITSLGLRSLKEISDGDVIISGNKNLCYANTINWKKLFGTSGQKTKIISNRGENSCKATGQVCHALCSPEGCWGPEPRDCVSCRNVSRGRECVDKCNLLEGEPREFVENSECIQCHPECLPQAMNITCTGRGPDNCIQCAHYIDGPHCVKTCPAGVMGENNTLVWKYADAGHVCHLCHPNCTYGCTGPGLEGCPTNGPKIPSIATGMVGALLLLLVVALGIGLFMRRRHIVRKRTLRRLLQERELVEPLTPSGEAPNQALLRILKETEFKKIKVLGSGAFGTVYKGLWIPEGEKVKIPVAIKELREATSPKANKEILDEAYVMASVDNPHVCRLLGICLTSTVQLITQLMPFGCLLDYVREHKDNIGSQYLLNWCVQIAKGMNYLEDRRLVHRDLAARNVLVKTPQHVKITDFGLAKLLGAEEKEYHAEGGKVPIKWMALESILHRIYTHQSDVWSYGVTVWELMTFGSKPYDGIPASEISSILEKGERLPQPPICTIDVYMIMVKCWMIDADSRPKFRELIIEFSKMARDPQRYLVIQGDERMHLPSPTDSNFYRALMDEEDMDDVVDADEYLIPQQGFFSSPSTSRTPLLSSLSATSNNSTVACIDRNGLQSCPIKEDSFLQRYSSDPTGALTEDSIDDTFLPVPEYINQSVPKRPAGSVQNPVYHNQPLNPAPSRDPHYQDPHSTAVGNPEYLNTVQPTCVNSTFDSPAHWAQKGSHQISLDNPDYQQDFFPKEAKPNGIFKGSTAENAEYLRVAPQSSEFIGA

## C=CC(=O)Nc1cc(Nc2cc(-c3cccc(NC(=O)c4cc5c(s4)CCCC5)c3C)cn(C)c2=O)ccc1N1CCN(CC)CC1 [CHMFL-BTK-85]
[1]
  kinase binding remaining (percent of control) at 1 µM: 58%
[2]
  Percent Control: 83%
[3]
  Percent Control: 100%
[4]
  Percent Control: 93%
[5]
  Percent Control: 100%
[6]
  Percent Control: 72%
[7]
  IC50: 11.5 nM
[8]
  Percent Control: 84%
[9]
  Percent Control: 100%
[10]
  Percent Control: 100%
[11]
  Percent Control: 59%
[12]
  Percent Control: 100%
[13]
  Percent Control: 92%
[14]
  Percent Control: 83%
[15]
  Percent Control: 100%
[16]
  Percent Control: 99%
[17]
  Percent Control: 62%
[18]
  Percent Control: 86%
[19]
  Percent Control: 91%
[20]
  Percent Control: 100%
[21]
  Percent Control: 100%
[22]
  Percent Control: 86%
[23]
  Percent Control: 100%
[24]
  Percent Control: 100%
[25]
  Percent Control: 74%
[26]
  Percent Control: 94%
[27]
  Percent Control: 80%
[28]
  Percent Control: 100%
[29]
  Percent Control: 100%
[30]
  Percent Control: 99%
[31]
  Percent Control: 54%
[32]
  Percent Control: 100%
[33]
  Percent Control: 100%
[34]
  Percent Control: 100%
[35]
  Percent Control: 75%
[36]
  Percent Control: 88%
[37]
  Percent Control: 100%
[38]
  Percent Control: 87%
[39]
  Percent Control: 94%
[40]
  Percent Control: 65%
[41]
  Percent Control: 100%
[42]
  Percent Control: 83%
[43]
  Percent Control: 19%
[44]
  Percent Control: 100%
[45]
  Percent Control: 99%
[46]
  Percent Control: 63%
[47]
  Percent Control: 98%
[48]
  Percent Control: 66%
[49]
  Percent Control: 100%
[50]
  Percent Control: 82%

— publication PMC7490411 (Signal Transduction and Targeted Therapy, 2020)
